In brackets after ≈: the same amount, converted by molar mass. Activity calls are given as the source filed them. The rule behind the calls is not given here.
Columns and labels:
Klebsiella pneumoniae [1] = test: Antibacterial activity against Klebsiella pneumoniae ATCC 13883 infected in Swiss albino mouse model of neutropenic lung infection at 10 mg/kg, iv pretreated for 1 hr followed by bacterial infection and measured after 5 hr post infection; assay type: functional, organism-based; conditions: time 6.0 hrs
Enterobacter cloacae = test: Antibacterial activity against multidrug-resistant Enterobacter cloacae BAA2341 assessed as bacterial growth inhibition incubated for 20 to 22 hrs by CLSI based analysis; assay type: functional; conditions: time 20-22 hrs
Acinetobacter baumannii [2] = test: Antibacterial activity against wild type Acinetobacter baumannii ATCC 19606 assessed as reduction in microbial growth incubated for 20 to 22 hrs by CLSI based analysis; assay type: functional; conditions: time 20-22 hrs
Escherichia coli [3] = test: Antibacterial activity against Escherichia coli ATCC 25922 infected in Swiss albino mouse model of Septicaemia infection assessed as log reduction in Septicaemia in blood at 0.1 to 10 mg/kg , iv preincubated for 4 hrs followed by bacterial infection and measured after 4 hrs post infection; assay type: functional; conditions: dose 0.1-10 mg/kg, time 8 hrs
[4] = AUClast in Swiss mouse Kidney at 3 mg/kg, iv measured upto 24 hrs by LC-MS/MS analysis; assay type: ADME, organism-based; parameters: dose 3 mg/kg, time < 24 hrs, route iv
Klebsiella pneumoniae [5] = test: Antibacterial activity against multidrug-resistant Klebsiella pneumoniae NR-48977 assessed as bacterial growth inhibition incubated for 20 to 22 hrs by CLSI based analysis; assay type: functional; conditions: time 20-22 hrs
[6] = Metabolic stability in mouse kidney assessed as parent compound remaining measured after 1 hrs by UPLC-MS analysis; assay type: ADME, tissue-based; conditions: read-out: Stability
Escherichia coli [7] = test: Antibacterial activity against multidrug-resistant Escherichia coli IR45 assessed as bacterial growth inhibition incubated for 20 to 22 hrs by CLSI based analysis; assay type: functional; conditions: time 20-22 hrs
Klebsiella pneumoniae [8] = test: Antibacterial activity against Klebsiella pneumoniae ATCC 13883 infected in Swiss albino mouse thigh infection model at 10 mg/kg, iv measured after 1 hr; assay type: functional, organism-based
HepG2 = test: Cytotoxicity against human HepG2 cells assessed as inhibition of cell growth at 30 uM incubated for 40 hrs by celltiterglo assay; assay type: functional
Escherichia coli [9] = test: Antibacterial activity against multidrug-resistant Escherichia coli UT189 assessed as bacterial growth inhibition incubated for 20 to 22 hrs by CLSI based analysis; assay type: functional; conditions: time 20-22 hrs
[10] = Cmax in Swiss mouse kidney at 3 mg/kg, iv measured upto 24 hrs by LC-MS/MS analysis; assay type: ADME, organism-based; parameters: dose 3 mg/kg, time < 24 hrs, route iv
Klebsiella pneumoniae [11] = test: Antibacterial activity against multidrug-resistant Klebsiella pneumoniae B817 assessed as bacterial growth inhibition incubated for 20 to 22 hrs by CLSI based analysis; assay type: functional; conditions: time 20-22 hrs
[12] = Protein binding in mouse plasma assessed as free fraction; assay type: ADME, cell-free
[13] = Aqueous solubility of compound at pH 4.5; assay type: physicochemical; conditions: buffer
[14] = biological target: Voltage-gated inwardly rectifying potassium channel KCNH2 (Homo sapiens, UniProt Q12809); test: Inhibition of hERG; assay type: toxicity; conditions: human
[15] = Ratio of AUC in kidney to plasma in Swiss mouse at 3 mg/kg, iv measured upto 24 hrs by LC-MS/MS analysis; assay type: ADME, organism-based; conditions: read-out: Ratio AUC
Staphylococcus aureus = test: Antibacterial activity against multidrug-resistant Staphylococcus aureus ATCC 33592 assessed as bacterial growth inhibition incubated for 20 to 22 hrs by CLSI based analysis; assay type: functional; conditions: time 20-22 hrs
Escherichia coli [16] = test: Antibacterial activity against Escherichia coli ATCC 25922 infected in Swiss albino mouse thigh infection model at 10 mg/kg, iv measured after 1 hr; assay type: functional, organism-based
Escherichia coli [17] = test: Antibacterial activity against multidrug-resistant Escherichia coli MG1655 assessed as bacterial growth inhibition incubated for 20 to 22 hrs by CLSI based analysis; assay type: functional; conditions: time 20-22 hrs
[18] = Cytotoxicity against human HEK cells assessed as inhibition of cell growth at 30 uM incubated for 40 hrs by celltiterglo assay; assay type: toxicity, cell-based
[19] = Ratio of drug concentration in mouse blood to plasma; assay type: ADME, cell-free
[20] = Protein binding in human plasma assessed as free fraction; assay type: ADME, cell-free
Escherichia coli [21] = test: Antibacterial activity against multidrug-resistant Escherichia coli BAA2469 assessed as bacterial growth inhibition incubated for 20 to 22 hrs by CLSI based analysis; assay type: functional; conditions: time 20-22 hrs
Klebsiella pneumoniae [22] = test: Antibacterial activity against wild type Klebsiella pneumoniae ATCC 13883 assessed as reduction in microbial growth incubated for 20 to 22 hrs by CLSI based analysis; assay type: functional; conditions: time 20-22 hrs
Citrobacter freundii = test: Antibacterial activity against multidrug-resistant Citrobacter freundii ATCC 8090 assessed as bacterial growth inhibition incubated for 20 to 22 hrs by CLSI based analysis; assay type: functional; conditions: time 20-22 hrs
[23] = AUClast in Swiss mouse Lung at 3 mg/kg, iv measured upto 24 hrs by LC-MS/MS analysis; assay type: ADME, organism-based; parameters: time < 24 hrs, dose 3 mg/kg, route iv
Escherichia coli [24] = test: Antibacterial activity against Escherichia coli UT189 infected in Swiss albino mouse model of urinary tract infection assessed as log reduction in bacteremia in bladder at 10 mg/kg, iv pre-infected with bacteria for 24 hrs followed by compound treatment for every 24 hrs for 3 days; assay type: functional; conditions: time 3 day
Klebsiella pneumoniae [25] = test: Antibacterial activity against multidrug-resistant Klebsiella pneumoniae G199 assessed as bacterial growth inhibition incubated for 20 to 22 hrs by CLSI based analysis; assay type: functional; conditions: time 20-22 hrs
Klebsiella pneumoniae [26] = test: Antibacterial activity against multidrug-resistant Klebsiella pneumoniae BAA2473 assessed as bacterial growth inhibition incubated for 20 to 22 hrs by CLSI based analysis; assay type: functional; conditions: time 20-22 hrs
Escherichia coli [27] = test: Antibacterial activity against Escherichia coli ATCC 35218 infected in Swiss albino mouse model of Septicaemia infection assessed as log reduction in Septicaemia in blood at 1 mg/kg , iv preincubated for 4 hrs followed by bacterial infection and measured after 4 hrs post infection; assay type: functional; conditions: time 8 hrs
[28] = Aqueous solubility of compound at pH 5.5; assay type: physicochemical; conditions: buffer
Escherichia coli [29] = test: Antibacterial activity against […] assessed as bacterial growth inhibition incubated for 20 to 22 hrs by CLSI based analysis; assay type: functional; conditions: time 20-22 hrs
Klebsiella pneumoniae [30] = test: Antibacterial activity against multidrug-resistant Klebsiella pneumoniae R1525 assessed as bacterial growth inhibition incubated for 20 to 22 hrs by CLSI based analysis; assay type: functional; conditions: time 20-22 hrs
[31] = Cmax in Swiss mouse lung at 3 mg/kg, iv measured upto 24 hrs by LC-MS/MS analysis; assay type: ADME, organism-based; parameters: time < 24 hrs, dose 3 mg/kg, route iv
Klebsiella pneumoniae [32] = test: Antibacterial activity against […] assessed as bacterial growth inhibition incubated for 20 to 22 hrs by CLSI based analysis; assay type: functional; conditions: time 20-22 hrs
[33] = Volume of distribution at steady state in Swiss mouse at 3 mg/kg, iv measured upto 24 hrs by LC-MS/MS analysis; assay type: ADME, organism-based; conditions: in vivo, read-out: Vdss
Acinetobacter baumannii [34] = test: Antibacterial activity against multidrug-resistant Acinetobacter baumannii R831 assessed as bacterial growth inhibition incubated for 20 to 22 hrs by CLSI based analysis; assay type: functional; conditions: time 20-22 hrs
[35] = Half life in Swiss mouse at 3 mg/kg, iv measured upto 24 hrs by LC-MS/MS analysis; assay type: ADME, organism-based; conditions: in vivo
Escherichia coli [36] = test: Antibacterial activity against wild type Escherichia coli ATCC 35218 assessed as reduction in microbial growth incubated for 20 to 22 hrs by CLSI based analysis; assay type: functional; conditions: time 20-22 hrs
[37] = Drug excretion in urine of Swiss mouse at 3 mg/kg, iv measured upto 24 hrs by LC-MS/MS analysis; assay type: ADME, organism-based; conditions: read-out: Drug excretion
THP-1 = test: Cytotoxicity against human THP-1 cells assessed as inhibition of cell growth at 30 uM incubated for 40 hrs by celltiterglo assay; assay type: functional, cell-based

Voltage-gated inwardly rectifying potassium channel KCNH2, sequence (Q12809 whole entry): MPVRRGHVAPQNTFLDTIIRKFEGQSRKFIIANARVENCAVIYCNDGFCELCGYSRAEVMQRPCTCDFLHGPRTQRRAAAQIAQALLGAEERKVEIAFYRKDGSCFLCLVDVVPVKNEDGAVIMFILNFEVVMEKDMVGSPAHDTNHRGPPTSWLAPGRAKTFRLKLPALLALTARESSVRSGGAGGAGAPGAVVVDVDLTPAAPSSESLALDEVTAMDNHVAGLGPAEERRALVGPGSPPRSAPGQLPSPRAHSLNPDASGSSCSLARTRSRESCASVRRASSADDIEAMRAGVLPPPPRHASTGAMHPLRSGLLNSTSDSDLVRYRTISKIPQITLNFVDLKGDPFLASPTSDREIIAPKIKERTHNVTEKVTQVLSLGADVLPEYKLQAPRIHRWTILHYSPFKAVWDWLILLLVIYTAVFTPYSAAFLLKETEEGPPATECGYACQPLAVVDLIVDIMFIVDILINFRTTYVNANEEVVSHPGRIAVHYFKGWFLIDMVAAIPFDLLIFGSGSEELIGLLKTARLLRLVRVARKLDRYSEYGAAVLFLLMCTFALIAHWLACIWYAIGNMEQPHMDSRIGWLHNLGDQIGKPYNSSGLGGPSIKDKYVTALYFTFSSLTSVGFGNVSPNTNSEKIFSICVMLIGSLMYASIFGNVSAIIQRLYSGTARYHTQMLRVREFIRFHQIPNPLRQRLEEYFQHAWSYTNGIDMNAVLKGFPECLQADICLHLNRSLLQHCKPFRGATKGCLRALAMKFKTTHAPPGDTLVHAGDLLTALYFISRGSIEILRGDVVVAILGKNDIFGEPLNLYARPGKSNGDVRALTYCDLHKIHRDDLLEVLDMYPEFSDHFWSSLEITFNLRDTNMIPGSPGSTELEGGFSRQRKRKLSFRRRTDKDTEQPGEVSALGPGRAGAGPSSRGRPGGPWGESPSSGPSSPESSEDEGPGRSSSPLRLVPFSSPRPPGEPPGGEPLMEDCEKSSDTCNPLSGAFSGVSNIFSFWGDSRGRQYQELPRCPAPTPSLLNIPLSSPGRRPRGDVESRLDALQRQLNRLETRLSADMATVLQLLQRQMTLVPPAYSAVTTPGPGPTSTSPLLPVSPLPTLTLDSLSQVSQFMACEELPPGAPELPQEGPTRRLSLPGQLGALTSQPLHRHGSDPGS

SMILES: CO[C@@H](CNC(=O)[C@H](NC(=O)[C@H](O)[C@H](C)O)[C@H](O)c1cncn1C)[C@H](O)[C@H](O)C(=O)N(C)[C@@H](Cc1ccccc1)C(=O)NCC(=O)N[C@H](C(=O)N[C@@H](CO)C(=O)N[C@H](C(=O)N[C@H](C(=O)N[C@@H](CC(=O)O)C(=O)N1CCC[C@H]1C(=O)NCc1cc(=O)c(O)cn1O)C(C)(C)C)C(C)(C)O)C(C)(C)O
- Activity (Klebsiella pneumoniae [1]): Active
- MIC (Enterobacter cloacae): 0.25 mg/L (≈ 0.173 µM)
- MIC (Acinetobacter baumannii [2]): 0.03 mg/L
- log(activity) (Escherichia coli [3]): 3
- AUC(0-t) at 24 h [4]: 7.15 µg·h/mL
- MIC (Klebsiella pneumoniae [5]): 4 mg/L (≈ 2.76 µM)
- remaining at 1 h [6]: 103%
- MIC (Escherichia coli [7]): 2 mg/L (≈ 1.38 µM)
- Activity (Klebsiella pneumoniae [8]): Active
- Activity (HepG2): inactive
- MIC (Escherichia coli [9]): 0.01 mg/L (≈ 0.00691 µM)
- Cmax [10]: 14.2 µg/mL
- MIC (Klebsiella pneumoniae [11]): 0.03 mg/L (≈ 0.0207 µM)
- fraction unbound [12]: 0.51
- solubility [13]: 8.1 mg/mL (≈ 5600 µM)
- inhibition (INH) [14]: Not Active
- Kp at 24 h [15]: 2.5
- MIC (Staphylococcus aureus): 4 mg/L (≈ 2.76 µM)
- Activity (Escherichia coli [16]): Active
- MIC (Escherichia coli [17]): 0.03 mg/L (≈ 0.0207 µM)
- Activity [18]: Non-Toxic
- blood plasma ratio [19]: 4.5
- fraction unbound [20]: 0.26
- MIC (Escherichia coli [21]): 0.06 mg/L (≈ 0.0415 µM)
- MIC (Klebsiella pneumoniae [22]): 0.03 mg/L
- MIC (Citrobacter freundii): 2 mg/L (≈ 1.38 µM)
- AUC(0-t) at 24 h [23]: 1.01 µg·h/mL
- log(activity) (Escherichia coli [24]): 3.1
- MIC (Klebsiella pneumoniae [25]): 0.06 mg/L (≈ 0.0415 µM)
- MIC (Klebsiella pneumoniae [26]): 4 mg/L (≈ 2.76 µM)
- Activity (Escherichia coli [27]): -3.8 log10CFU
- solubility [28]: 9.1 mg/mL (≈ 6290 µM)
- MIC (Escherichia coli [29]): 0.06 mg/L (≈ 0.0415 µM)
- MIC (Klebsiella pneumoniae [30]): 0.06 mg/L (≈ 0.0415 µM)
- Cmax [31]: 2.42 µg/mL
- MIC (Klebsiella pneumoniae [32]): 0.06 mg/L (≈ 0.0415 µM)
- Vd [33]: 0.25 L/kg
- MIC (Acinetobacter baumannii [34]): 2 mg/L (≈ 1.38 µM)
- half-life [35]: 15 min
- MIC (Escherichia coli [36]): 0.01 mg/L
- dose excreted at 24 h [37]: 65%
- Activity (THP-1): inactive
